Reference: patent US20170150719A1, “FUNGICIDAL PYRAZOLES AND THEIR MIXTURES” (E I DU PONT DE NEMOURS AND COMPANY, priority 2010, published 2017)
Marks after values point to notes of the source that are not given here.

How the values were obtained:
[1] = system: Puccinia recondita f. sp. tritici; assay: Test G: wheat leaf rust, spray after inoculation (curative) on wheat seedlings, visual disease rating; assay type: in vivo; conditions: 100 = 100% disease control; for pest or weed control at 200 µg/mL / Test G rating (disease control): sprayed after inoculation, 0 = no disease control; for Test G rating (% disease control): spray after inoculation, rating without asterisk
Description: (§1) A hyphen (-) indicates no test results.

[2] = system: Alternaria solani; assay: Test B: tomato early blight, preventive spray on tomato seedlings, visual disease rating; conditions: for pest or weed control at 200 µg/mL: Alternaria solani, in Solanum lycopersicum, read-out: Test B rating (disease control); for Test B rating (disease control) / Test B rating (% disease control): tomato early blight, 100 = 100% disease control; for Test B rating (disease control): 0 = no disease control relative to the controls; for Test B rating (% disease control): preventive spray, rating without asterisk
[3] = system: Septoria nodorum; assay: Test E: Septoria glume blotch, preventive spray on wheat seedlings, visual disease rating; conditions: 100 = 100% disease control; for pest or weed control at 200 µg/mL: Parastagonospora nodorum, in Triticum aestivum, read-out: Test E rating (disease control), Septoria glume blotch; for pest or weed control at 200 µg/mL / Test E rating (disease control): 0 = no disease control relative to the controls; for Test E rating (disease control): Septoria glume blotch; for Test E rating (% disease control): Septoria glume blotch on wheat, preventive spray, rating without asterisk
[4] = system: Botrytis cinerea; assay: Test A: tomato Botrytis, preventive spray on tomato seedlings, visual disease rating; conditions: 100 = 100% disease control; for pest or weed control at 200 µg/mL: Botrytis cinerea, in Solanum lycopersicum, read-out: Test A rating (disease control), tomato Botrytis; for pest or weed control at 200 µg/mL / Test A rating (disease control): 0 = no disease control relative to the controls; for Test A rating (disease control) / Test A rating (% disease control): tomato Botrytis; for Test A rating (% disease control): preventive spray, 0 = no control relative to controls, rating without asterisk
Description: General protocol for preparing test suspensions for Tests A-I: the test compounds were first dissolved in acetone in an amount equal to 3% of the final volume and then suspended at the desired concentration (in ppm) in acetone and purified water (50/50 mix by volume) containing 250 ppm of the surfactant Trem® 014 (polyhydric alcohol esters). The resulting test suspensions were then used in Tests A-I. Each test was conducted in triplicate, and the results were averaged. Spraying a 200 ppm test suspension to the point of run-off on the test plants was the equivalent of a rate of about 800 g/ha. Unless otherwise indicated, the rating values indicate a 200 ppm test suspension was used. (An asterisk “*” next to the rating value indicates a 40 ppm test suspension was used.)
The test suspension was sprayed to the point of run-off on tomato seedlings. The following day the seedlings were inoculated with a spore suspension of Botrytis cinerea (the causal agent of tomato Botrytis) and incubated in saturated atmosphere at 20° C. for 48 h, and then moved to a growth chamber at 24° C. for 3 additional days, after which time visual disease ratings were made.

[5] = system: Puccinia recondita f. sp. tritici; assay: Test H: wheat leaf rust, preventive spray on wheat seedlings, visual disease rating; conditions: 100 = 100% disease control; for pest or weed control at 200 µg/mL: read-out: Test H rating (disease control), wheat leaf rust, sprayed the day before inoculation; for pest or weed control at 200 µg/mL / Test H rating (disease control): 0 = no disease control; for Test H rating (disease control) / Test H rating (% disease control): wheat leaf rust; for Test H rating (disease control): sprayed the day before inoculation; for Test H rating (% disease control): preventive spray, rating without asterisk
[6] = system: Septoria tritici; assay: Test F: wheat leaf blotch, preventive spray on wheat seedlings, visual disease rating; assay type: in vivo; design: Test F rating (disease control), value marked *: concentration or dose not given beside the values; conditions: for pest or weed control at 200 µg/mL: Zymoseptoria tritici; for pest or weed control at 200 µg/mL / Test F rating (disease control) / Test F rating (% disease control): 100 = 100% disease control; for pest or weed control at 200 µg/mL / Test F rating (disease control): 0 = no disease control relative to the controls; for Test F rating (% disease control): preventive spray, rating without asterisk; for Test F rating (disease control), value marked *: rating marked with asterisk (*), other test condition, not explained in the text shown
Description: as §1

[7] = system: Blumeria graminis f. sp. tritici; assay: Test I: wheat powdery mildew, preventive spray on wheat seedlings, visual disease rating; conditions: 100 = 100% disease control; for pest or weed control at 200 µg/mL: Blumeria graminis, in Triticum aestivum, read-out: Test I rating (disease control), wheat powdery mildew; for pest or weed control at 200 µg/mL / Test I rating (disease control): 0 = no disease control relative to the controls; for Test I rating (disease control) / Test I rating (% disease control): wheat powdery mildew; for Test I rating (% disease control): preventive spray, rating without asterisk

Row | Compound | pest or weed control at 200 µg/mL [1] [%] | pest or weed control at 200 µg/mL [2] [%] | pest or weed control at 200 µg/mL [3] [%] | pest or weed control at 200 µg/mL [4] [%] | pest or weed control at 200 µg/mL [5] [%] | pest or weed control at 200 µg/mL [6] [%] | pest or weed control at 200 µg/mL [7] [%] | Test G rating (disease control) [1] [%] | Test B rating (disease control) [2] [%] | Test E rating (disease control) [3] [%] | Test A rating (disease control) [4] [%] | Test H rating (disease control) [5] [%] | Test F rating (disease control) [6] [%] | Test I rating (disease control) [7] [%] | other results
1 | Cc1nn(C)c(Nc2c(F)cc(F)cc2F)c1-c1ccc(F)cc1Br [Compound 74, 4-(2-bromo-4-fluorophenyl)-1,3-dimethyl-N-(2,4,6-trifluorophenyl)-1H-pyrazol-5-amine] | 0 | 100 | 98 | 100 | 100 | 100 | 100 |  |  |  |  |  |  |  | 
2 | Cc1nn(C)c(Nc2c(Cl)cc(Br)cc2Cl)c1-c1ccc(F)cc1F [compound 155] |  |  |  |  |  |  |  | 94 | 0 | 0 | 100 | 97 | 100 | 99 | 
3 | Cc1nn(C)c(Nc2c(F)cc(F)cc2Cl)c1-c1c(F)cccc1F [Compound 86, N-(2-chloro-4,6-difluorophenyl)-4-(2,6-difluorophenyl)-1,3-dimethyl-1H-pyrazol-5-amine] | 0 | 99 | 90 | 100 | 100 | 100 | 100 |  |  |  |  |  |  |  | 
4 | Cc1nn(C)c(Nc2c(F)cc(F)cc2F)c1-c1c(F)cccc1F [compound 89] |  |  |  |  |  |  |  | 9 | 99 | 82 | 100 | 99 | 100 | 100 | 
5 | Cc1nn(C)c(Nc2c(F)cc(F)cc2F)c1-c1ccccc1Br [compound 70] |  |  |  |  |  |  |  | 0 | 26 | 73 | 99 | 99 | 100 | 100 | 
6 | COc1cc(F)c(-c2c(C)nn(C)c2Oc2c(F)cc(C#N)cc2F)c(F)c1 [compound 38] |  |  |  |  |  |  |  | 0 | 94 | 87 | 99 | 96 | 99 | 97 | 
7 | Cc1nn(C)c(Nc2c(F)cc(F)cc2Cl)c1-c1ccc(F)cc1Br [Compound 84, 4-(2-bromo-4-fluorophenyl)-N-(2-chloro-4,6-difluorophenyl)-1,3-dimethyl-1H-pyrazol-5-amine] | 92 | 99 | 96 | 100 | 100 | 100 | 100 |  |  |  |  |  |  |  | 
8 | Cc1nn(C)c(Nc2ccc(F)cc2Cl)c1-c1c(Cl)cccc1Cl [compound 109] |  |  |  |  |  |  |  | 0 | 0 | 0 | 100 | 97 | 100 | 100 | 
9 | CCOc1cc(F)c(-c2c(C)nn(C)c2Nc2c(F)cc(Cl)cc2Cl)c(F)c1 [compound 198] |  |  |  |  |  |  |  |  |  |  |  |  |  |  | Test G rating (% disease control) [1]: 9%; Test B rating (% disease control) [2]: 100%; Test E rating (% disease control) [3]: 60%; Test A rating (% disease control) [4]: 100%; Test H rating (% disease control) [5]: 80%; Test F rating (% disease control) [6]: 100%; Test I rating (% disease control) [7]: 96%
10 | Cc1nn(C)c(Nc2ccc(Br)cc2Cl)c1-c1ccc(F)cc1Cl [compound 172] |  |  |  |  |  |  |  | 0 | 73 | 60 | 100 | 100 | 100 | 100 | 
11 | COc1ccc(Nc2c(-c3ccc(F)cc3F)c(C)nn2C)c(F)c1 [compound 63] |  |  |  |  |  |  |  | 0 | 99 | 0 | 99 | 80 | 99 | 99 | 
12 | Cc1nn(C)c(Nc2ccc(Cl)cc2Cl)c1-c1c(F)cccc1Cl [compound 78] |  |  |  |  |  |  |  | 9 | 65 | 0 | 99 | 99 |  | 100 | Test F rating (disease control), value marked * [6]: 99* %
13 | Cc1nn(C)c(Nc2c(F)cc(F)cc2F)c1-c1ccc(Cl)cc1Cl [compound 18] |  |  |  |  |  |  |  | 95 | 98 | 98 | 100 | 99 | 99 | 97 | 
14 | Cc1nn(C)c(Nc2c(F)cc(F)cc2F)c1-c1c(F)cc(C#N)cc1F [compound 35] |  |  |  |  |  |  |  | 0 | 100 | 60 | 100 | 100 | 99 | 94 | 
15 | Cc1nn(C)c(Nc2ccc(F)cc2Cl)c1-c1c(F)cccc1Cl [Compound 58, N-(2-chloro-4-fluorophenyl)-4-(2-chloro-6-fluorophenyl)-1,3-dimethyl-1H-pyrazol-5-amine] | 32 | 100 | 0 | 99 | 99 | 100 | 100 |  |  |  |  |  |  |  | 
16 | COc1ccc(-c2c(C)nn(C)c2Nc2ccc(Cl)cc2Cl)c(Cl)c1 [compound 77] |  |  |  |  |  |  |  | 0 | 98 | 0 | 99 | 99 |  | 100 | Test F rating (disease control), value marked * [6]: 99* %
17 | Cc1nn(C)c(Nc2c(F)cc(Cl)cc2Cl)c1-c1ccc(F)cc1F [Compound 141, N-(2,4-dichloro-6-fluorophenyl)-4-(2,4-difluorophenyl)-1,3-dimethyl-1H-pyrazol-5-amine] | 97 | 99 | 99 | 99 | 100 | 100 | 100 |  |  |  |  |  |  |  | 
18 | Cc1nn(C)c(Nc2ccc(F)cc2Br)c1-c1ccc(F)cc1Cl [Compound 73, N-(2-bromo-4-fluorophenyl)-4-(2-chloro-4-fluorophenyl)-1,3-dimethyl-1H-pyrazol-5-amine] | 90 | 99 | 78 | 100 | 100 | 100 | 100 |  |  |  |  |  |  |  | 
19 | Cc1nn(C)c(Nc2c(F)cc(Cl)cc2Cl)c1-c1ccc(F)cc1I [compound 222] |  |  |  |  |  |  |  |  |  |  |  |  |  |  | Test G rating (% disease control) [1]: 0%; Test B rating (% disease control) [2]: 77%; Test E rating (% disease control) [3]: 0%; Test A rating (% disease control) [4]: 98%; Test H rating (% disease control) [5]: 90%; Test F rating (% disease control) [6]: 100%; Test I rating (% disease control) [7]: 96%
20 | COc1ccc(-c2c(C)nn(C)c2Nc2ccc(F)cc2F)c(Cl)c1 [compound 42] |  |  |  |  |  |  |  | 8 | 99 | 0 | 98 | 100 | 99 | 100 | 
